Experimental data reported in PMC12926040, “ADP-ribose is a competitive inhibitor of methanol dehydrogenases from Bacillus methanolicus” (The Journal of Biological Chemistry, 2025).

How the values were obtained:
[1] = biological target: T1, BmMDH2 (Bacillus methanolicus, UniProt I3E949); assay: Inhibition kinetics of ADPR on formaldehyde reduction (NADH fluorescence); assay type: biochemical, Bacillus methanolicus MGA3; settings: read-out: KM of BmMDH2, without ADPR, 0 to 150 μM NADH
Description: Data are shown as means ± SDs (n = 3). Apparent KM values for NAD^+ were determined in the presence of 10 nM ACT (Fig. S6). […] Data are presented as means ± SDs (n = 3). […] The row labels are given as the substance labels. / Panel D: no substance label is printed with the KD and thermodynamic values.

[2] = biological target: T2, CbFDH (Candida boidinii, UniProt O13437); assay: Inhibition effect of ADPR on type II alcohol dehydrogenases; assay type: biochemical; settings: 0.5 mM ADPR, 0.5 mM NAD+
T2 construct: made in house; cell-free extract
T2 sequence (O13437 1-364): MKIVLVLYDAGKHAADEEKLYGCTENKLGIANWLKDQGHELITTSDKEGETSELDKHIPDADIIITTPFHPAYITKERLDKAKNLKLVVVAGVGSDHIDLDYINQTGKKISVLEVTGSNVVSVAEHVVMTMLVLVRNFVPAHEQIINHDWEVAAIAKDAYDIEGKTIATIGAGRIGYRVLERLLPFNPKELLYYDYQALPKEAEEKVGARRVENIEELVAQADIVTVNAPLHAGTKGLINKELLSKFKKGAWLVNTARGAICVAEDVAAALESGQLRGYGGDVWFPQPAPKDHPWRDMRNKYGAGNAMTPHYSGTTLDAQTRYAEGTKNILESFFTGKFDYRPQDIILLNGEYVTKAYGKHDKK

[3] = test system: isopropanol dehydrogenase (IPADHM4); assay type: biochemical, Brucella suis
[4] = biological target: T1, BmMDH2; assay: Effects of NAM, AMP and ADPR (0.3 mM each) on BmMDH2 activity; assay type: biochemical, Bacillus methanolicus MGA3; settings: 3 mM NAD+, 40 mM ethanol
[5] = biological target: T3, glucose dehydrogenase (BmGDH) (Priestia megaterium, UniProt P40288); assay: Inhibition effect of ADPR on type II alcohol dehydrogenases; assay type: biochemical, Bacillus megaterium IWG3; settings: 0.5 mM ADPR, 0.5 mM NAD+
T3 construct: made in house; cell-free extract

[6] = biological target: T1, BmMDH2; assay: Kinetic assay of MDHs, ethanol dehydrogenation, NAD+ varied; assay type: biochemical, Bacillus methanolicus MGA3; settings: 1.0 μM ADPR
[7] = biological target: T4, ADH from Saccharomyces cerevisiae (ScADH) (Saccharomyces cerevisiae, UniProt P00330); assay: Inhibition effect of ADPR on type I alcohol dehydrogenase; assay type: biochemical; settings: 0.5 mM ADPR, 0.5 mM NAD+
T4 construct: purchased TCI A0200
T4 sequence (P00330 1-348): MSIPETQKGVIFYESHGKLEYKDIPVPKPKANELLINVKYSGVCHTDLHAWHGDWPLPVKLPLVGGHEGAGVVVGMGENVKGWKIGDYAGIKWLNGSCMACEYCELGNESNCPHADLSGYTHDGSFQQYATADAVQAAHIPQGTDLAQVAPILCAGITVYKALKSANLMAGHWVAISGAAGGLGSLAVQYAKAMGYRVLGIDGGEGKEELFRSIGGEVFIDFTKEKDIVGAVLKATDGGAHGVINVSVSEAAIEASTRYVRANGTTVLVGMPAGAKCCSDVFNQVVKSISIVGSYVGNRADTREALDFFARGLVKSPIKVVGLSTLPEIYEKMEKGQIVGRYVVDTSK

[8] = test system: BaAlaDH; assay: Inhibition effect of ADPR on type II alcohol dehydrogenases; assay type: biochemical, Bacillaceae; settings: 0.5 mM ADPR, 0.5 mM NAD+
[9] = biological target: ACT (Bacillus methanolicus, UniProt Q8KP10, K162Q/L124I/V88I); settings: read-out: KM of ACT for ADPR; Tris-HCl pH 8.0, 5 mM MgCl2, 25 °C
Description: The reaction was terminated by adding 10 μl of 3 M H2SO4 after incubation at 25 ° C for 5 min, followed by analysis using HPLC. The kcat and KM values were determined by fitting the initial velocity versus substrate concentration data to the Michaelis-Menten equation using GraphPad Prism.
Reactions were terminated by adding 10 μL of 3 M H2SO4 after incubation at 25 °C for 5 minutes. Data are means ± SDs of three measurements.

[10] = biological target: T1, BmMDH2; assay: Isothermal titration calorimetry (ITC) of ADPR binding; set-up: species or system Bacillus methanolicus MGA3; settings: metal-free BmMDH2
[11] = substrate: NC(=O)c1ccc[n+]([C@@H]2O[C@H](COP(=O)(O)OP(=O)(O)OC[C@H]3O[C@@H](n4cnc5c(N)ncnc54)[C@H](O)[C@@H]3O)[C@@H](O)[C@H]2O)c1; assay: Kinetic assay of MDHs, ethanol dehydrogenation, NAD+ varied; assay type: biochemical, Bacillus methanolicus MGA3; settings: other: in the presence of 10 nM ACT, 40 mM ethanol, pH 8.0, 25.0 °C
[12] = substrate: NC(=O)c1ccc[n+]([C@@H]2O[C@H](COP(=O)(O)OP(=O)(O)OC[C@H]3O[C@@H](n4cnc5c(N)ncnc54)[C@H](O)[C@@H]3O)[C@@H](O)[C@H]2O)c1; assay: as above; assay type: biochemical, Bacillus methanolicus MGA3; settings: other: in the presence of 10 nM ACT, 40 mM ethanol, pH 8.0, 25.0 °C; remark: listed apart in the source
Description: NAD^+ and NADH used for the kinetic assays were pretreated with ACT as described above. The reaction mixtures for the ethanol dehydrogenation contained 40 mM ethanol, adequate MDHs, and various concentrations of NAD^+ (ranging from 0 to 48 mM). Enzymatic catalytic rates were determined by monitoring the increase in NADH absorbance at 340 nm. To determine the kinetics of BmMDH2 for the reverse direction (formaldehyde reduction), the reaction mixtures contained 1 mM DTT, 100 nM BmMDH2, 20 mM formaldehyde, 0.5 mM MnCl2, and 0 to 150 μM of NADH. The catalytic rates of formaldehyde reduction were measured by monitoring the decrease of NADH fluorescence, using excitation and emission wavelengths of 340 nm and 535 nm, respectively.
The kinetic assays were conducted in 200 μL Tris-HCl buffer (100 mM, pH 8.0) at 25 °C. The reaction mixture contained 40 mM ethanol, 0.5 mM MnCl2, 10 nM ACT, 5 mM MgCl2, adequate MDHs (BmMDH1: 500 nM; BmMDH2: 100 nM; BmMDH2S101G: 100 nM; CnMDH2 CT4: 100 nM), and 0 to 48 mM of NAD^+. […] Data are means ± SDs of three measurements.

T3 sequence (P40288 whole entry): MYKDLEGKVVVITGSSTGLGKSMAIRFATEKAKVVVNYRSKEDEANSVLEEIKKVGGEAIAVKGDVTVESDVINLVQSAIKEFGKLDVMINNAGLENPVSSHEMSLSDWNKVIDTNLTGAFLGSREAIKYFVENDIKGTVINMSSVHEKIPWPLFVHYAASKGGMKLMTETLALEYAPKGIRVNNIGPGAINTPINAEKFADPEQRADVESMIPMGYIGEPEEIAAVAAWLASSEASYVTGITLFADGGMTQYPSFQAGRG

NC(=O)C1=CN([C@@H]2O[C@H](COP(=O)(O)OP(=O)(O)OC[C@H]3O[C@@H](n4cnc5c(N)ncnc54)[C@H](O)[C@@H]3O)[C@@H](O)[C@H]2O)C=CC1 [NADH]
Km [1]: 6.7 ± 1.7 µM

adenosine diphosphate ribose [ADPR]
inhibition by ADPR [2]: None of these enzymes showed significant inhibition | inhibition by ADPR [3]: None of these enzymes showed significant inhibition | inhibition of BmMDH2 activity [4]: 72% | inhibition by ADPR [5]: None of these enzymes showed significant inhibition | effect on kinetics of ethanol dehydrogenation [6]: decrease in kcat, while KM remained unchanged | inhibition by ADPR [7]: None of these enzymes showed significant inhibition | inhibition by ADPR [8]: None of these enzymes showed significant inhibition | Km [9]: 15.9 µM | binding to EDTA-treated BmMDH2 [10]: no binding

B1: BmMDH2 (Bacillus methanolicus MGA3) (protein)
chain: MTNTQSAFFMPSVNLFGAGSVNEVGTRLADLGVKKALLVTDAGLHGLGLSEKISSIIRAAGVEVSIFPKAEPNPTDKNVAEGLEAYNAENCDSIVTLGGGSSHDAGKAIALVAANGGKIHDYEGVDVSKEPMVPLIAINTTAGTGSELTKFTIITDTERKVKMAIVDKHVTPTLSINDPELMVGMPPSLTAATGLDALTHAIEAYVSTGATPITDALAIQAIKIISKYLPRAVANGKDIEAREQMAFAQSLAGMAFNNAGLGYVHAIAHQLGGFYNFPHGVCNAVLLPYVCRFNLISKVERYAEIAAFLGENVDGLSTYDAAEKAIKAIERMAKDLNIPKGFKELGAKEEDIETLAKNAMKDACALTNPRKPKLEEVIQIIKNAM
Km [11]: 0.72 ± 0.06 mM

B2: BmMDH1 (Bacillus methanolicus MGA3) (protein)
chain: MTTNFFIPPASVIGRGAVKEVGTRLKQIGAKKALIVTDAFLHSTGLSEEVAKNIREAGVDVAIFPKAQPDPADTQVHEGVDVFKQENCDSLVSIGGGSSHDTAKAIGLVAANGGRINDYQGVNSVEKPVVPVVAITTTAGTGSETTSLAVITDSARKVKMPVIDEKITPTVAIVDPELMVKKPAGLTIATGMDALSHAIEAYVAKGATPVTDAFAIQAMKLINEYLPKAVANGEDIEAREKMAYAQYMAGVAFNNGGLGLVHSISHQVGGVYKLQHGICNSVNMPHVCAFNLIAKTERFAHIAELLGENVAGLSTAAAAERAIVALERINKSFGIPSGYAEMGVKEEDIELLAKNAYEDVCTQSNPRVPTVQDIAQIIKNAM
Km [12]: 2.1 ± 1.0 mM
